Test results as given in ChEMBL document CHEMBL4270601, “Design and synthesis of multipotent 3-aminomethylindoles and 7-azaindoles with enhanced protein phosphatase 2A-activating profile and neuroprotection” (Eur J Med Chem, 2018).
Calls of active or inactive are those of the source. The calls are words filed in the database; no cut-off is given here.

Key:
SH-SY5Y [1] = assay: Cytotoxicity against human SH-SY5Y cells assessed as decrease in cell viability up to 30 uM after 48 hrs by MTT assay; type: cell-based
SH-SY5Y [2] = assay: Neuroprotective activity against cocktail of rotenone plus oligomycin A-induced oxidative stress in human SH-SY5Y cells assessed as increase in cell viability at 10 nM preincubated for 24 hrs followed by […] measured after 24 hrs by MTT assay relative to control; type: functional
[3] = test system: Voltage-gated calcium channel; assay: Inhibition of voltage gated calcium channel in human SH-SY5Y cells assessed as blockade of K+-evoked calcium uptake at 1 uM pretreated for 10 mins followed by 70 mM K+ addition by Fluo-4AM dye based fluorescence assay relative to control; type: cell-based
SH-SY5Y [4] = assay: Reversal of okadaic acid-mediated PP2A catalytic subunit C Ser/Thr phosphatase activity inactivation in human SH-SY5Y cells assessed as recovery of PP2A activity at 0.1 uM preincubated for 24 hrs followed by cotreatment with PPA2 inhibitor okadaic acid for 18 hrs measured over 30 mins by pNPP based spectrophotometric analysis relative to control; type: cell-based; design: scale not given: the % may be the effect or the level left
SH-SY5Y [5] = assay: Neuroprotective activity against okadaic acid-induced oxidative stress in human SH-SY5Y cells assessed as increase in cell viability at 0.1 uM preincubated for 24 hrs followed by OA addition measured after 20 hrs by MTT assay relative to control; type: functional
Bos taurus = species on record: Bos taurus; assay: Inhibition of P/Q-type voltage dependent calcium channel in bovine Chromaffin cells assessed as reduction in K+-induced calcium current at 1 uM after 3 mins by whole cell patch clamp electrophysiology assay; type: cell-based
[6] = biological target: Voltage-dependent N-type calcium channel subunit alpha (Bos taurus) (UniProt G3X7Z2); assay: Inhibition of N-type voltage dependent calcium channel in bovine Chromaffin cells assessed as reduction in K+-induced calcium current at 1 uM after 3 mins by whole cell patch clamp electrophysiology assay; type: cell-based
[7] = test system: Voltage-gated calcium channel; assay: Inhibition of voltage gated calcium channel in human SH-SY5Y cells assessed as blockade of K+-evoked calcium uptake at 3 uM pretreated for 10 mins followed by 70 mM K+ addition by Fluo-4AM dye based fluorescence assay relative to control; type: cell-based
SH-SY5Y [8] = assay: Reversal of okadaic acid-mediated PP2A inactivation in human SH-SY5Y cells assessed as decrease in Tau phosphorylation at Ser202/Thr205 residues at 0.1 uM after 24 hrs by Western blot method; type: cell-based

Voltage-dependent N-type calcium channel subunit alpha (Bos taurus), sequence (G3X7Z2 as listed by the source): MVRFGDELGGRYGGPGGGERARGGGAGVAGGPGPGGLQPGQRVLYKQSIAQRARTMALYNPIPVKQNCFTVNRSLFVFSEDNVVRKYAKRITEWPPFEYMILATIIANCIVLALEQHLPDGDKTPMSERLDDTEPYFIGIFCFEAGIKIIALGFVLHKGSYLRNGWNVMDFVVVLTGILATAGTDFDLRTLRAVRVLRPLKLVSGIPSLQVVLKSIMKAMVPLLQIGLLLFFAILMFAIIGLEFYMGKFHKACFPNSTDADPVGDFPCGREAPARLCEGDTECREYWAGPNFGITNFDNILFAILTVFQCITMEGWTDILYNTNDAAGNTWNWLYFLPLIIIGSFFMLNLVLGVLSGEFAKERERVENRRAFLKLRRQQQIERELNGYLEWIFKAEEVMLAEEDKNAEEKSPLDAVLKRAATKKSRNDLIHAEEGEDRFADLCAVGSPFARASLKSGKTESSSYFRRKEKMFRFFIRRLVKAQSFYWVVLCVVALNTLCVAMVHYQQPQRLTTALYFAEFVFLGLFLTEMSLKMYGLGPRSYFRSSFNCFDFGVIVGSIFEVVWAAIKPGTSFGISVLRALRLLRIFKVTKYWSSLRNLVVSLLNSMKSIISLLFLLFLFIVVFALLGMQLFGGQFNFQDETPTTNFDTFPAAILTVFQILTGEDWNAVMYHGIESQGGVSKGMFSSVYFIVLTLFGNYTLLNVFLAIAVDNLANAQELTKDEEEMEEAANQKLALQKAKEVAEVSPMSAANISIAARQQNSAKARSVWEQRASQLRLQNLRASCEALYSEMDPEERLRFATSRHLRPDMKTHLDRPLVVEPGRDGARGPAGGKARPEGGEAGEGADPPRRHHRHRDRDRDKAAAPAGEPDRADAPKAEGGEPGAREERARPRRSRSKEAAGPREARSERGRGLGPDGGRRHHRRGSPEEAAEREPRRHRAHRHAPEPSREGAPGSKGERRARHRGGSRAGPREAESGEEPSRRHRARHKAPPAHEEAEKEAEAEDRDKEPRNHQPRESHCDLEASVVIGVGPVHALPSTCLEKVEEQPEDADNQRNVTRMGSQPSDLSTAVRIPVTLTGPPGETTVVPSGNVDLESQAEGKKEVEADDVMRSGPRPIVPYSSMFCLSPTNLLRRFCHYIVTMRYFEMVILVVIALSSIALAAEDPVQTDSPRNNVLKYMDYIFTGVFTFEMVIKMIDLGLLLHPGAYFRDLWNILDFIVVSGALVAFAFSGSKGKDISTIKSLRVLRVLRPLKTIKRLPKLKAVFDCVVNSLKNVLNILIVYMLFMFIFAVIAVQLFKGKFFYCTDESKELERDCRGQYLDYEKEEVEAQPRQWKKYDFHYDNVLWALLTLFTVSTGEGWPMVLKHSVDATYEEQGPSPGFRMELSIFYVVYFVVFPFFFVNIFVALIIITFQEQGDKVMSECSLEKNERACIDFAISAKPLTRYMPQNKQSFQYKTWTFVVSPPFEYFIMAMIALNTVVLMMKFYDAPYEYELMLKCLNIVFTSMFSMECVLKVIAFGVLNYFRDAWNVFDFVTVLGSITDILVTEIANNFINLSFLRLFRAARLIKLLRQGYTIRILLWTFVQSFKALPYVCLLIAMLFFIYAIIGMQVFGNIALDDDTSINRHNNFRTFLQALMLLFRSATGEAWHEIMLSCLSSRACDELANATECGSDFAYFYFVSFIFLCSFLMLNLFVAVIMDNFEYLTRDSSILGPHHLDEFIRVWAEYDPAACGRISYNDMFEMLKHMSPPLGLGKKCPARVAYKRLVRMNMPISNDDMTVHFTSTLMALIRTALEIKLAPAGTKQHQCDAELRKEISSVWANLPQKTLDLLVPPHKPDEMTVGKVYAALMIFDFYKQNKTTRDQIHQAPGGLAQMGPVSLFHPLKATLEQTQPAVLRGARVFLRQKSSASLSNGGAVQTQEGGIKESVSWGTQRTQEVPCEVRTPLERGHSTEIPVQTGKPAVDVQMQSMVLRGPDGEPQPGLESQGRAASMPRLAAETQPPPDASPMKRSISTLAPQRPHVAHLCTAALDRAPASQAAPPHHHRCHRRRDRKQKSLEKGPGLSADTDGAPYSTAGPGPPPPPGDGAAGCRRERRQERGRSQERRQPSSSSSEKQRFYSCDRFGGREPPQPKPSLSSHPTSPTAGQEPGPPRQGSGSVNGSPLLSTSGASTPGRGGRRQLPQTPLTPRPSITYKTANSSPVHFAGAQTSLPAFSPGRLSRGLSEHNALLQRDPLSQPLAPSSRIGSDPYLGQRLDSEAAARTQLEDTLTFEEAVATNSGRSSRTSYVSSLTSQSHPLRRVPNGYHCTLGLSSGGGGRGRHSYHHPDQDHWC

CCCCn1cc(CN2CCCCC2)c2cc(Br)cnc21
Activity (SH-SY5Y [1]): Non-Toxic | Activity (SH-SY5Y [2]): 39% | inhibition (INH) [3]: 9% | Activity (SH-SY5Y [4]): 22% | Activity (SH-SY5Y [5]): 98%

CN(C)Cc1cn(Cc2ccccc2)c2ncc(Br)cc12
inhibition (Bos taurus): Active | Activity (SH-SY5Y [1]): Non-Toxic | inhibition [6]: Active | Activity (SH-SY5Y [2]): 32% | inhibition (INH) [3]: 46% | Activity (SH-SY5Y [4]): 21% | Activity (SH-SY5Y [5]): 84%

CN(C)Cc1cn(Cc2ccccc2)c2ccccc12
Activity (SH-SY5Y [1]): Non-Toxic | Activity (SH-SY5Y [2]): 34% | inhibition (INH) [3]: 22% | Activity (SH-SY5Y [4]): 45% | Activity (SH-SY5Y [5]): 67%

COC(=O)C1=C(C)NC(C)=C(C(=O)OC)C1c1ccccc1[N+](=O)[O-] [NIFEDIPINE]
inhibition (INH) [7]: 40%

C#CCn1cc(CN(C)C)c2cc(Cl)ccc21
Activity (SH-SY5Y [1]): Non-Toxic | Activity (SH-SY5Y [2]): 26% | inhibition (INH) [3]: 18% | Activity (SH-SY5Y [4]): 23% | Activity (SH-SY5Y [5]): 43%

C#CCn1cc(CN(C)C)c2ccccc21
Activity (SH-SY5Y [1]): Non-Toxic | Activity (SH-SY5Y [2]): 32% | inhibition (INH) [3]: 3% | Activity (SH-SY5Y [4]): 59% | Activity (SH-SY5Y [5]): 75%

Clc1ccc2c(c1)c(CN1CCCCC1)cn2Cc1ccccc1
Activity (SH-SY5Y [1]): Non-Toxic | Activity (SH-SY5Y [2]): 24% | inhibition (INH) [3]: 37% | Activity (SH-SY5Y [4]): 27% | Activity (SH-SY5Y [5]): 62%

CCCCn1cc(CN2CCCCC2)c2ccccc21
Activity (SH-SY5Y [1]): Non-Toxic | Activity (SH-SY5Y [2]): 25% | inhibition (INH) [3]: 13% | Activity (SH-SY5Y [4]): 30% | Activity (SH-SY5Y [5]): 55%

CCCCn1cc(CN(C)C)c2ccccc21
Activity (SH-SY5Y [1]): Non-Toxic | Activity (SH-SY5Y [2]): 20% | inhibition (INH) [3]: 7% | Activity (SH-SY5Y [4]): 12% | Activity (SH-SY5Y [5]): 50%

CCCCn1cc(CN(C)C)c2cc(Cl)ccc21
Activity (SH-SY5Y [1]): Non-Toxic | Activity (SH-SY5Y [2]): 38% | inhibition (INH) [3]: 23% | Activity (SH-SY5Y [4]): 39% | Activity (SH-SY5Y [5]): 93%

COc1cnc2c(c1)c(CN(C)C)cn2Cc1ccccc1
Activity (SH-SY5Y [1]): Non-Toxic | Activity (SH-SY5Y [2]): 29% | inhibition (INH) [3]: 10% | Activity (SH-SY5Y [4]): 33% | Activity (SH-SY5Y [5]): 51%

c1ccc(Cn2cc(CN3CCCCC3)c3ccccc32)cc1
Activity (SH-SY5Y [1]): Non-Toxic | Activity (SH-SY5Y [2]): 28% | inhibition (INH) [3]: 11% | Activity (SH-SY5Y [4]): 37% | Activity (SH-SY5Y [5]): 65%

COc1cnc2c(c1)c(CN1CCCCC1)cn2Cc1ccccc1
Activity (SH-SY5Y [1]): Non-Toxic | Activity (SH-SY5Y [2]): 40% | inhibition (INH) [3]: 19% | Activity (SH-SY5Y [4]): 47% | Activity (SH-SY5Y [5]): 62%

C#CCn1cc(CN2CCCCC2)c2cc(Br)cnc21
Activity (SH-SY5Y [1]): Non-Toxic | Activity (SH-SY5Y [2]): 13% | inhibition (INH) [3]: 8% | Activity (SH-SY5Y [4]): 25% | Activity (SH-SY5Y [5]): 68%

CC12CC3CC(C)(C1)CC(N)(C3)C2 [MEMANTINE]
Activity (SH-SY5Y [4]): 28% | Activity (SH-SY5Y [5]): 63%

CN(C)Cc1cn(Cc2ccccc2)c2ccc(Cl)cc12
inhibition (Bos taurus): Active | Activity (SH-SY5Y [1]): Non-Toxic | inhibition [6]: Active | Activity (SH-SY5Y [2]): 32% | inhibition (INH) [3]: 40% | Activity (SH-SY5Y [4]): 78% | Activity (SH-SY5Y [8]): Active | Activity (SH-SY5Y [5]): 88%

Brc1cnc2c(c1)c(CN1CCCCC1)cn2Cc1ccccc1
Activity (SH-SY5Y [1]): Non-Toxic | Activity (SH-SY5Y [2]): 25% | inhibition (INH) [3]: 15% | Activity (SH-SY5Y [4]): 31% | Activity (SH-SY5Y [5]): 60%

COc1ccc2[nH]cc(CCNC(C)=O)c2c1 [MELATONIN]
Activity (SH-SY5Y [2]): 36%

CCCCn1cc(CN2CCCCC2)c2cc(Cl)ccc21
Activity (SH-SY5Y [1]): Non-Toxic | Activity (SH-SY5Y [2]): 27% | inhibition (INH) [3]: 24% | Activity (SH-SY5Y [4]): 38% | Activity (SH-SY5Y [5]): 98%

C#CCn1cc(CN2CCCCC2)c2cc(Cl)ccc21
Activity (SH-SY5Y [1]): Non-Toxic | Activity (SH-SY5Y [2]): 16% | inhibition (INH) [3]: 32% | Activity (SH-SY5Y [4]): 44% | Activity (SH-SY5Y [5]): 55%

C#CCn1cc(CN2CCCCC2)c2ccccc21
Activity (SH-SY5Y [1]): Non-Toxic | Activity (SH-SY5Y [2]): 41% | inhibition (INH) [3]: 35% | Activity (SH-SY5Y [4]): 17% | Activity (SH-SY5Y [5]): 58%

C#CCn1cc(CN(C)C)c2cc(Br)cnc21
Activity (SH-SY5Y [1]): Non-Toxic | Activity (SH-SY5Y [2]): 17% | inhibition (INH) [3]: 11% | Activity (SH-SY5Y [4]): 17% | Activity (SH-SY5Y [5]): 63%

CCCCn1cc(CN(C)C)c2cc(Br)cnc21
Activity (SH-SY5Y [1]): Non-Toxic | Activity (SH-SY5Y [2]): 18% | inhibition (INH) [3]: 10% | Activity (SH-SY5Y [4]): 34% | Activity (SH-SY5Y [5]): 57%
